Laboratory results as given in patent publication US9156831B2, “Chemical compounds” (ASTRAZENECA AB, priority 2013, dated 2015).

Key:
HT29 = test: Cell proliferation assay (MTS); assay type: cell-based, human
Description: (§1) The sensitivity of a panel of human cancer cell lines to the effects of compounds was determined in a standard proliferation assay.
(§2) Cells were plated in 96 well plates at densities of 1000-6000 cells per well in RPMI media containing 10% FBS. After incubation at 37° C. for 16 hours, various concentrations of compound were added to the assay plates. After incubation for an additional 72 h, the viable cells were determined by the addition of MTS reagent (Promega #3582) to each well for 2 h. […] The formazan product was then quantitated by absorbance at 490 nm, as an indicator of the relative number of live cells. In order to determine the GI50 (concentration at which growth of cells was inhibited by 50%) the relative number of cells present at the time of drug addition was determined by comparison with the MTS readout before the drug was added, and this value was subtracted from the 72 hr value of untreated cells as a measure of cell growth during the assay.

SNU354 = test: Cell proliferation assay (MTS); assay type: cell-based, human
Description: as §1, §2

MCF7 = test: Cell proliferation assay (MTS); assay type: cell-based, human
Description: as §1
(§3) Cells were plated in 96 well plates at densities of 1000-6000 cells per well in RPMI media containing 10% FBS. After incubation at 37° C. for 16 hours, various concentrations of compound were added to the assay plates. After incubation for an additional 72 h, the viable cells were determined by the addition of MTS reagent (Promega #3582) to each well for 2 h. MTS is a tetrazolium salt that is bioreduced by metabolically active cells in the presence of an electron coupling reagent to formazan. The formazan product was then quantitated by absorbance at 490 nm, as an indicator of the relative number of live cells. In order to determine the GI50 (concentration at which growth of cells was inhibited by 50%) the relative number of cells present at the time of drug addition was determined by comparison with the MTS readout before the drug was added, and this value was subtracted from the 72 hr value of untreated cells as a measure of cell growth during the assay.

CAMA1 = test: Cell proliferation assay (MTS); assay type: cell-based, human
Description: (§4) The sensitivity of a panel of human cancer cell lines to the effects of compounds was determined in a standard proliferation assay. Cell lines were sourced through the AstraZeneca Cell Bank.
as §3

BFTC905 = test: Cell proliferation assay (MTS); assay type: cell-based, human
Description: as §1, §2

RAJI = test: Cell proliferation assay (MTS); assay type: cell-based, human
Description: as §1, §3

HPAC = test: Cell proliferation assay (MTS); assay type: cell-based, human
Description: as §1, §3

SNU368 = test: Cell proliferation assay (MTS); assay type: cell-based, human
Description: as §1, §3

SNU620 = test: Cell proliferation assay (MTS); assay type: cell-based, human
Description: as §4, §3

EBC1 = test: Cell proliferation assay (MTS); assay type: cell-based, human
Description: as §1, §2

BT474 xenograft = test: Tumour growth inhibition, BT474 xenograft model; assay type: in vivo, mouse
Description: BT474 is an estrogen receptor positive breast tumour cell lines with elevated Her2 expression and carries a mutation in the PIK3CA gene (K111N). Female Swiss athymic nude mice (swiss nu/nu-AZUK) were transplanted subcutaneously with human epithelial breast ductal carcinoma cell line BT474c (derived in AZ from BT474-ATCC HTB-20) tumours passaged in mice. Mice were implanted with 0.36 mg 60 day oestrogen pellet (Innovative Research of America) 24 hours prior to cell implantation. 5×10^6 cells in 50% matrigel (BD Bioscience) were injected s.c. on the left flank of the animals.
Animals were randomised into groups of 10-15 when tumours reached a volume of ˜200-300 mm^3 and treatment commenced. Animals were dosed for 3-4 weeks by peroral route, with compound in a suitable vehicle at defined doses and schedules. Tumours were measured two-three times weekly by caliper and volume of tumours calculated using elliptical formula (pi/6×width×width×length).

RT11284 = test: Cell proliferation assay (MTS); assay type: cell-based, human
Description: as §1, §3

PANC1 = test: Cell proliferation assay (MTS); assay type: cell-based, human
Description: as §1, §2

N87 = test: Cell proliferation assay (MTS); assay type: cell-based, human
Description: as §4, §2

L363 = test: Cell proliferation assay (MTS); assay type: cell-based, human
Description: as §1, §3

977 = test: Cell proliferation assay (MTS); assay type: cell-based, human
Description: as §1, §3

SMMC7721 = test: Cell proliferation assay (MTS); assay type: cell-based, human
Description: as §1, §2

BXPC3 = test: Cell proliferation assay (MTS); assay type: cell-based, human
Description: as §1, §2

BEL7405 = test: Cell proliferation assay (MTS); assay type: cell-based, human
Description: as §4, §3

NUGC4 = test: Cell proliferation assay (MTS); assay type: cell-based, human
Description: as §1, §3

HARA = test: Cell proliferation assay (MTS); assay type: cell-based, human
Description: as §1, §3

SNU1 = test: Cell proliferation assay (MTS); assay type: cell-based, human
Description: as §4, §3

MONOMAC6 = test: Cell proliferation assay (MTS); assay type: cell-based, human
Description: as §1, §3

HCT116 = test: Cell proliferation assay (MTS); assay type: cell-based, human
Description: as §1, §3

HEL9217 = test: Cell proliferation assay (MTS); assay type: cell-based, human
Description: as §4, §3

SW480 = test: Cell proliferation assay (MTS); assay type: cell-based, human
Description: as §1, §2

THP1 = test: Cell proliferation assay (MTS); assay type: cell-based, human
Description: as §4, §3

PC3 = test: Cell proliferation assay (MTS); assay type: cell-based, human
Description: as §1, §3

RAMOS = test: Cell proliferation assay (MTS); assay type: cell-based, human
Description: as §1, §3

AMO1 = test: Cell proliferation assay (MTS); assay type: cell-based, human
Description: as §4, §3

MKN74 = test: Cell proliferation assay (MTS); assay type: cell-based, human
Description: as §1, §3

MDAMB468 = test: Cell proliferation assay (MTS); assay type: cell-based, human
Description: as §1, §2

SNU449 = test: Cell proliferation assay (MTS); assay type: cell-based, human
Description: as §1, §2

VMCUB1 = test: Cell proliferation assay (MTS); assay type: cell-based, human
Description: as §1, §3

HCC1569 = test: Cell proliferation assay (MTS); assay type: cell-based, human
Description: as §4, §2

HS766T = test: Cell proliferation assay (MTS); assay type: cell-based, human
Description: as §4, §3

H460 = test: Cell proliferation assay (MTS); assay type: cell-based, human
Description: as §1, §3

[1] = Homo sapiens, Blood/lymph, PIK3CA WT
[2] = Homo sapiens, Pancreas, PIK3CA WT
[3] = Homo sapiens, Stomach, PIK3CA WT

CCn1nc(C2CCN(C(=O)CCO)CC2)nc1-c1cnc(N)c(-c2nnc(C(C)(C)C)o2)n1 [Example 3, 1-(4-(5-(5-amino-6-(5-tert-butyl-1,3,4-oxadiazol-2-yl)pyrazin-2-yl)-1-ethyl-1H-1,2,4-triazol-3-yl)piperidin-1-yl)-3-hydroxypropan-1-one]
Category (HT29): Resistant (resistant (GI50>1.0 μM))
GI50 (HT29; Homo sapiens, HT-29, Colon, PIK3CA MUT): 5.48 µM
Category (SNU354): Resistant (resistant (GI50>1.0 μM))
GI50 (SNU354; Homo sapiens, SNU-354, Liver, PIK3CA WT): 5.6 µM
Category (MCF7): Sensitive (sensitive (GI50<=1.0 μM))
GI50 (MCF7; Homo sapiens, Breast, PIK3CA MUT): 0.309 µM
Category (CAMA1): Resistant (resistant (GI50>1.0 μM))
GI50 (CAMA1; Homo sapiens, CAMA-1, Breast, PIK3CA WT): 15.5 µM
Category (BFTC905): Sensitive (sensitive (GI50<=1.0 μM))
GI50 (BFTC905; Homo sapiens, BFTC-905, Bladder, PIK3CA WT): 0.966 µM
Category (RAJI): Resistant (resistant (GI50>1.0 μM))
GI50 (RAJI; [1]): 30 µM
Category (HPAC): Resistant (resistant (GI50>1.0 μM))
GI50 (HPAC; [2]): 2.16 µM
Category (SNU368): Resistant (resistant (GI50>1.0 μM))
GI50 (SNU368; Homo sapiens, Liver, PIK3CA WT): 1.6 µM
Category (SNU620): Resistant (resistant (GI50>1.0 μM))
GI50 (SNU620; [3]): 3.14 µM
Category (EBC1): Resistant (resistant (GI50>1.0 μM))
GI50 (EBC1; Homo sapiens, EBC-1, Lung, PIK3CA WT): 8.57 µM
tumour growth (BT474 xenograft; Example 3 alone 25 mg/kg BID every day, FIG. 11): partially inhibited growth
tumour growth (BT474 xenograft; Example 3 alone 25 mg/kg BID, 2 days on/5 days off, vs vehicle, FIG. 10): partially inhibited tumour growth
tumour growth (BT474 xenograft; Example 3 alone 50 mg/kg BID, 2 days on/5 days off, vs vehicle, FIG. 9): partially inhibited tumour growth
Category (RT11284): Resistant (resistant (GI50>1.0 μM))
GI50 (RT11284; Homo sapiens, RT112/84, Bladder, PIK3CA WT): 1.17 µM
Category (PANC1): Resistant (resistant (GI50>1.0 μM))
GI50 (PANC1; Homo sapiens, PANC-1, Pancreas, PIK3CA WT): 5.34 µM
Category (N87): Resistant (resistant (GI50>1.0 μM))
GI50 (N87; [3]): 1.3 µM
Category (L363): Sensitive (sensitive (GI50<=1.0 μM))
GI50 (L363; Homo sapiens, L-363, Blood/lymph, PIK3CA MUT): 0.681 µM
Category 977: Resistant (resistant (GI50>1.0 μM))
GI50 (977; Homo sapiens, Bladder, PIK3CA WT): 4.42 µM
Category (SMMC7721): Resistant (resistant (GI50>1.0 μM))
GI50 (SMMC7721; Homo sapiens, SMMC-7721, Liver, PIK3CA WT): 30 µM
Category (BXPC3): Resistant (resistant (GI50>1.0 μM))
GI50 (BXPC3; Homo sapiens, BXPC-3, Pancreas, PIK3CA WT): 14.1 µM
Category (BEL7405): Resistant (resistant (GI50>1.0 μM))
GI50 (BEL7405; Homo sapiens, Liver, PIK3CA WT): 8.11 µM
Category (NUGC4): Resistant (resistant (GI50>1.0 μM))
GI50 (NUGC4; Homo sapiens, NUGC-4, Stomach, PIK3CA WT): 30 µM
Category (HARA): Resistant (resistant (GI50>1.0 μM))
GI50 (HARA; Homo sapiens, Lung, PIK3CA WT): 1.91 µM
Category (SNU1): Resistant (resistant (GI50>1.0 μM))
GI50 (SNU1; [3]): 15 µM
Category (MONOMAC6): Resistant (resistant (GI50>1.0 μM))
GI50 (MONOMAC6; Homo sapiens, MONO-MAC-6, Blood/lymph, PIK3CA WT): 2.62 µM
Category (HCT116): Resistant (resistant (GI50>1.0 μM))
GI50 (HCT116; Homo sapiens, HCT-116, Colon, PIK3CA MUT): 30 µM
Category (HEL9217): Resistant (resistant (GI50>1.0 μM))
GI50 (HEL9217; Homo sapiens, HEL 92.1.7, Blood/lymph, PIK3CA INCON): 30 µM
Category (SW480): Resistant (resistant (GI50>1.0 μM))
GI50 (SW480; Homo sapiens, Colon, PIK3CA WT): 15.9 µM
Category (THP1): Sensitive (sensitive (GI50<=1.0 μM))
GI50 (THP1; Homo sapiens, THP-1, Blood/lymph, PIK3CA WT): 0.528 µM
Category (PC3): Resistant (resistant (GI50>1.0 μM))
GI50 (PC3; Homo sapiens, PC-3, Prostate, PIK3CA WT): 3.83 µM
Category (RAMOS): Resistant (resistant (GI50>1.0 μM))
GI50 (RAMOS; [1]): 30 µM
Category (AMO1): Resistant (resistant (GI50>1.0 μM))
GI50 (AMO1; [1]): 26.9 µM
Category (MKN74): Resistant (resistant (GI50>1.0 μM))
GI50 (MKN74; Homo sapiens, MKN-74, Stomach, PIK3CA WT): 30 µM
Category (MDAMB468): Resistant (resistant (GI50>1.0 μM))
GI50 (MDAMB468; Homo sapiens, MDA-MB-468, Breast, PIK3CA WT): 9.33 µM
Category (SNU449): Resistant (resistant (GI50>1.0 μM))
GI50 (SNU449; Homo sapiens, SNU-449, Liver, PIK3CA WT): 5.41 µM
Category (VMCUB1): Sensitive (sensitive (GI50<=1.0 μM))
GI50 (VMCUB1; Homo sapiens, VM-CUB-1, Bladder, PIK3CA MUT): 0.732 µM
Category (HCC1569): Resistant (resistant (GI50>1.0 μM))
GI50 (HCC1569; Homo sapiens, Breast, PIK3CA WT): 1.37 µM
Category (HS766T): Resistant (resistant (GI50>1.0 μM))
GI50 (HS766T; [2]): 3.47 µM
Category (H460): Resistant (resistant (GI50>1.0 μM))
GI50 (H460; Homo sapiens, NCI-H460, Lung, PIK3CA MUT): 30 µM
